Source: patent publication US9481659B2, “Selective heterocyclic sphingosine 1 phosphate receptor modulators” (Celgene International II SÀRL, priority 2011, dated 2016)
Counter-ions that a name gives are not always drawn.

Biological target: S1P1/EDG1 (Homo sapiens, UniProt P21453)
Test: S1P1 CRE-bla CHOK1 reporter assay, inhibition of Forskolin induced cAMP
Format: cell-based
Conditions: agonist activity range; S1P1 CRE-bla CHOK1 cells, 2 μM Forskolin; read-out: S1P1 ACTIVITY
Summary of the method: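 CRE-bla CHO K1 cells stably expressing human S1P1 were treated 4 hrs at 37° C with 10-point compound dilutions plus 2 μM Forskolin. Inhibition of cAMP-driven β-lactamase reporter was read with a FRET substrate loaded 2 hrs at room temperature.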

Sequence of S1P1/EDG1 (P21453 whole entry): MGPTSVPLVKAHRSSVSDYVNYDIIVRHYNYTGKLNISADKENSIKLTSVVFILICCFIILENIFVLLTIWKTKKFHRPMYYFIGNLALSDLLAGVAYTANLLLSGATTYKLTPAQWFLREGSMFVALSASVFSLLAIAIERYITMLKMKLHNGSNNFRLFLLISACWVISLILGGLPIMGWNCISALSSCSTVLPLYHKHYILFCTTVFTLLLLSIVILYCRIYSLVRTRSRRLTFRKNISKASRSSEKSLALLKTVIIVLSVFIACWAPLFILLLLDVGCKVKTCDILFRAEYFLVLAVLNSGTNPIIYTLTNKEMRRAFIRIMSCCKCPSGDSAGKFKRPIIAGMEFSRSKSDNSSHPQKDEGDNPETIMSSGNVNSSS

Structure (SMILES) | EC50 [nM]
CC(C)Oc1ccc(-c2nnc(-c3cccc4c3CCC[C@H]4NCCS(C)(=O)=O)s2)cc1C#N [Compound 296, (R)-2-isopropoxy-5-(5-(5-((2-(methylsulfonyl)ethyl)amino)-5,6,7,8-tetrahydronaphthalen-1-yl)-1,3,4-thiadiazol-2-yl)benzonitrile] | 0.05 to 0.5
CC(C)Oc1ccc(-c2ncc(-c3cccc4c3CC[C@H]4NC(=O)CO)s2)cc1C#N [Compound 74] | 0.05 to 0.5
CC(C)Oc1ccc(-c2ncc(-c3cccc4c3CC[C@H]4NS(=O)(=O)CCN3CCC3)s2)cc1C#N [Compound 127] | 0.5 to 5
CC(C)Oc1ccc(-c2ncc(-c3cccc4c3CC[C@H]4NCC(=O)N3CCNCC3)s2)cc1C#N [Compound 107] | 0.5 to 5
CC(C)Oc1ccc(-c2ncc(-c3cccc4c3CC[C@H]4NC(=O)[C@H](N)CO)s2)cc1C#N [Compound 80] | 0.05 to 0.5
CC(C)Oc1ccc(-c2nnc(-c3cccc4c3CCC[C@H]4NCc3ccncc3)s2)cc1C#N [Compound 262] | 0.5 to 5
CNC(=O)CS(=O)(=O)N[C@@H]1CCCc2c(-c3nnc(-c4ccc(OC(C)C)c(C#N)c4)s3)cccc21 [Compound 294] | 0.05 to 0.5
CC(C)Oc1ccc(-c2ncc(-c3cccc4c3CC[C@H]4NC(=O)N3CC(O)C3)s2)cc1C#N [Compound 171] | 0.05 to 0.5
CC(C)Oc1ccc(-c2nnc(-c3cccc4c3CCC[C@@H]4NS(=O)(=O)CC(=O)O)s2)cc1C#N [Compound 288, (S)-2-(N-(5-(5-(3-cyano-4-isopropoxyphenyl)-1,3,4-thiadiazol-2-yl)-1,2,3,4-tetrahydronaphthalen-1-yl)sulfamoyl) acetic acid] | 0.05 to 0.5
COCC(=O)N[C@@H]1CCc2c(-c3cnc(-c4ccc(OC(C)C)c(C#N)c4)s3)cccc21 [Compound 75] | 0.05 to 0.5
COCC(=O)N[C@@H]1CCCc2c(-c3nnc(-c4ccc(OC(C)C)c(C#N)c4)s3)cccc21 [Compound 237] | 0.05 to 0.5
COCCS(=O)(=O)N[C@H]1CCCc2c(-c3nnc(-c4ccc(OC(C)C)c(C#N)c4)s3)cccc21 [Compound 281, (S)—N-(5-(5-(3-cyano-4-isopropoxyphenyl)-1,3,4-thiadiazol-2-yl)-1,2,3,4-tetrahydronaphthalen-1-yl)-2-methoxyethanesulfonamide] | 0.05 to 0.5
CC(C)Oc1ccc(-c2ncc(-c3cccc4c3CC[C@H]4NS(=O)(=O)CCN3CCOCC3)s2)cc1C#N [Compound 121] | 0.5 to 5
CCOC(=O)CCS(=O)(=O)N[C@H]1CCCc2c(-c3nnc(-c4ccc(OC(C)C)c(C#N)c4)s3)cccc21 [Compound 286, (S)-ethyl 3-(N-(5-(5-(3-cyano-4-isopropoxyphenyl)-1,3,4-thiadiazol-2-yl)-1,2,3,4-tetrahydronaphthalen-1-yl)sulfamoyl)propanoate] | 0.05 to 0.5
CC(C)Oc1ccc(-c2nnc(-c3cccc4c3CC[C@H]4NCc3ncc[nH]3)s2)cc1C#N [Compound 29, (R)-5-(5-(1-(((1H-imidazol-2-yl)methyl)amino)-2,3-dihydro-1H-inden-4-yl)-1,3,4-thiadiazol-2-yl)-2-isopropoxybenzonitrile] | 0.05 to 0.5
CC(C)Oc1ccc(-c2nnc(-c3cccc4c3CCC[C@@H]4NCc3ccccn3)s2)cc1C#N [Compound 272] | 0.5 to 5
CC(=O)N[C@@H]1CCCc2c(-c3nnc(-c4ccc(OC(C)C)c(C#N)c4)s3)cccc21 [Compound 231, (R)—N-(5-(5-(3-cyano-4-isopropoxyphenyl)-1,3,4-thiadiazol-2-yl)-1,2,3,4-tetrahydronaphthalen-1-yl) acetamide] | 0.05 to 0.5
CC(C)Oc1ccc(-c2nnc(-c3cccc4c3CCC[C@@H]4NCc3cnco3)s2)cc1C#N [Compound 269] | 0.5 to 5
CC(C)Oc1ccc(-c2nnc(-c3cccc4c3CCC[C@@H]4NCC(=O)N3CCCC3)s2)cc1C#N [Compound 304, (S)-2-isopropoxy-5-(5-(5-((2-oxo-2-(pyrrolidin-1-yl)ethyl)amino)-5,6,7,8-tetrahydronaphthalen-1-yl)-1,3,4-thiadiazol-2-yl)benzonitrile] | 0.5 to 5
CC(C)Oc1ccc(-c2ncc(-c3cccc4c3CC[C@H]4NS(=O)(=O)CCN3CC[C@H](O)C3)s2)cc1C#N [Compound 134] | 0.5 to 5
CC(C)Oc1ccc(-c2nnc(-c3cccc4c3CC[C@H]4NS(=O)(=O)CC(=O)O)s2)cc1C#N [Compound 41, (R)-2-(N-(4-(5-(3-cyano-4-isopropoxyphenyl)-1,3,4-thiadiazol-2-yl)-2,3-dihydro-1H-inden-1-yl)sulfamoyl)acetic acid] | < 0.05
CC(C)Oc1ccc(-c2nnc(-c3cccc4c3CC[C@H]4NCCS(C)(=O)=O)s2)cc1C#N [Compound 32, (R)-2-isopropoxy-5-(5-(1-((2-(methylsulfonyl)ethyl)amino)-2,3-dihydro-1H-inden-4-yl)-1,3,4-thiadiazol-2-yl)benzonitrile] | < 0.05

Structure (SMILES) | EC50 [nM]
CC(C)Oc1ccc(-c2nnc(-c3cccc4c3CCC[C@@H]4NCc3cccnc3)s2)cc1C#N [Compound 271, (S)-2-isopropoxy-5-(5-(5-((pyridin-3-ylmethyl)amino)-5,6,7,8-tetrahydronaphthalen-1-yl)-1,3,4-thiadiazol-2-yl)benzonitrile] | 0.5 to 5
CC(C)Oc1ccc(-c2nnc(-c3cccc4c3CCC[C@@H]4NCc3ncco3)s2)cc1C#N [Compound 268] | 0.5 to 5
CC(C)Oc1ccc(-c2nc(-c3cccc4c3CC[C@@H]4NS(N)(=O)=O)ns2)cc1C#N [Compound 309, (S)—N-(4-(5-(3-cyano-4-isopropoxyphenyl)-1,2,4-thiadiazol-3-yl)-2,3-dihydro-1H-inden-1-yl) sulfamide] | 0.05 to 0.5
CC(C)Oc1ccc(-c2nnc(-c3cccc4c3CCC[C@H]4NC(=O)CO)s2)cc1C#N [Compound 245, (R)—N-(5-(5-(3-cyano-4-isopropoxyphenyl)-1,3,4-thiadiazol-2-yl)-1,2,3,4-tetrahydronaphthalen-1-yl)-2-hydroxyacetamide] | 0.05 to 0.5
CC(C)Oc1ccc(-c2ncc(-c3cccc4c3CC[C@H]4NC(=O)N3CCC[C@H](O)C3)s2)cc1C#N [Compound 199] | 0.05 to 0.5
CC(C)Oc1ccc(-c2ncc(-c3cccc4c3CC[C@H]4NS(=O)(=O)CCN3CCCC3)s2)cc1C#N [Compound 130] | 0.5 to 5
CC(C)Oc1ccc(-c2nnc(-c3cccc4c3CC[C@H]4NS(C)(=O)=O)s2)cc1C#N [Compound 34, (R)—N-(4-(5-(3-cyano-4-isopropoxyphenyl)-1,3,4-thiadiazol-2-yl)-2,3-dihydro-1H-inden-1-yl)methanesulfonamide] | 0.05 to 0.5
CC(C)Oc1ccc(-c2nnc(-c3cccc4c3CCC[C@@H]4NC(=O)c3ccccn3)s2)cc1C#N [Compound 243] | > 5
CC(C)Oc1ccc(-c2nc(-c3cccc4c3CC[C@@H]4NCCO)ns2)cc1C#N [Compound 311, (S)-5-(3-(1-(2-hydroxyethyl)amino)-2,3-dihydro-1H-inden-4-yl)-1,2,4-thiadiazol-5-yl)-2-isopropoxybenzonitrile hydrochloride] | 0.5 to 5
CC(C)Oc1ccc(-c2ncc(-c3cccc4c3CC[C@H]4NC(=O)CN3CCCC3)s2)cc1C#N [Compound 85] | > 5
CC(C)Oc1ccc(-c2nnc(-c3cccc4c3CCC[C@H]4NC(=O)c3ccncc3)s2)cc1C#N [Compound 233] | 0.5 to 5
CC(C)Oc1ccc(-c2nnc(-c3cccc4c3CC[C@H]4NC(=O)N3CC(C(=O)O)C3)s2)cc1C#N [Compound 50] | 0.05 to 0.5
CC(C)Oc1ccc(-c2nnc(-c3cccc4c3CCC[C@H]4NCc3ccccn3)s2)cc1C#N [Compound 264] | 0.5 to 5
CC(C)Oc1ccc(-c2ncc(-c3cccc4c3CC[C@H]4NCCO)s2)cc1C#N [Compound 91, (R)-5-(5-(1-((2-hydroxyethyl)amino)-2,3-dihydro-1H-inden-4-yl)thiazol-2-yl)-2-isopropoxybenzonitrile] | 0.5 to 5
COCCS(=O)(=O)N[C@@H]1CCCc2c(-c3cnc(-c4ccc(OC(C)C)c(C#N)c4)s3)cccc21 [Compound 285] | 0.5 to 5
CC(C)Oc1ccc(-c2ncc(-c3cccc4c3CC[C@H]4NC(=O)N3CC[C@@H](O)C3)s2)cc1C#N [Compound 174] | 0.05 to 0.5
COC(=O)N[C@H]1CCCc2c(-c3nnc(-c4ccc(OC(C)C)c(C#N)c4)s3)cccc21 [Compound 240] | 0.05 to 0.5
COC(=O)N[C@@H]1CCCc2c(-c3nnc(-c4ccc(OC(C)C)c(C#N)c4)s3)cccc21 [Compound 244] | 0.5 to 5
CC(C)Oc1ccc(-c2ncc(-c3cccc4c3CC[C@H]4NS(=O)(=O)CCN3CCC[C@@H](O)C3)s2)cc1C#N [Compound 143, N—((R)-4-(2-(3-cyano-4-isopropoxyphenyl)thiazol-5-yl)-2,3-dihydro-1H-inden-1-yl)-2-((R)-3-hydroxypiperidin-1-yl)ethanesulfonamide] | 0.5 to 5
COCCS(=O)(=O)N[C@@H]1CCCc2c(-c3nnc(-c4ccc(OC(C)C)c(C#N)c4)s3)cccc21 [Compound 280, (R)—N-(5-(5-(3-cyano-4-isopropoxyphenyl)-1,3,4-thiadiazol-2-yl)-1,2,3,4-tetrahydronaphthalen-1-yl)-2-methoxyethanesulfonamide] | 0.5 to 5
CC(C)Oc1ccc(-c2ncc(-c3cccc4c3CC[C@H]4NC(=O)N3CCNCC3)s2)cc1C#N [Compound 188] | 0.5 to 5
